# Tests used:
# [1] = system: UCP1 knockout mice; assay: Indirect calorimetry, heat production after i.p. injection in UCP1 knockout mice; assay type: in vivo, Mus musculus; details: 0.5 mg/kg i.p., 27° C., 60 minutes, p=0.482 (FIG. 6B, 6C)
# Experimental: (§1) Indirect calorimetric measurements in mice were performed using an open flow respirometry system (Phenomaster, TSE Systems, Bad Homburg/Germany). All animals were kept at room temperature or cold-acclimated at 4° C. for 4 days as indicated in the results section. For the gas exchange measurement (O2 consumption and CO2 production) mice were placed individually in metabolic cages (type I, 3 liter volume) without food and water and transferred to a climate cabinet (TPK 600, Feutron, Greiz/Germany). The air was continuously pulled through the cages at a flow rate of 33 l/h. For gas analysis a subsample was dried in a cooling trap and analyzed for gas exchange. Mice in the cabinet were preconditioned to 30° C. and the basal metabolic rate (BMR) in the post-absorptive state was measured between 8:00 a.m.-12:00 p.m. The O2 consumption and CO2 production of each mouse was analyzed every 5 min over a period of 1 min. […] After injection the O2 consumption and CO2 production rate of each mouse was recorded for 45-60 min with high-resolution recordings at 10 sec intervals. […] Respiratory exchange ratios (RER) and heat production (HP) were calculated from the following formula: (RER=CO2 production/O2 consumption) and (HP[mW]=(4.44+1.43*respiratory exchange ratio)*oxygen consumption [ml/h]).
# [2] = system: UCP1 expression; assay: UCP1 mRNA expression (qRT-PCR) in primary adipocytes from inguinal white adipose tissue; assay type: cell-based, Mus musculus; details: 0.1 μM secretin or 0.5 μM isoproterenol, 6 hours, normalized to TFIIB (FIG. 4A)
# Experimental: For culturing primary adipocytes male 129S1/SvImJ mice ([…] or UCP1-KO mice and wildtype littermates) at the age of 5-6 weeks were used for the dissection of inguinal and epidydimal white adipose tissue and interscapular brown adipose tissue depots. The tissue was carefully minced and treated with collagenase for 45 min at 37° C. The homogenate was filtered through a 250 μm nylon mesh and centrifuged at 500 g to collect the stromal vascular fraction (SVF). The SVF cell pellet was rinsed and seeded into XF96 V3-PS cell culture microplate (Seahorse Bioscience). After reaching confluency, induction medium containing 10% fetal bovine serum (FBS), 0.5 mM isobutylmethylxanthine, 125 nM indomethacin, 1 mM dexamethasone, 850 nM insulin and 1 nM T3 was added. […] Respiration was measured on day 7 of differentiation. […] RNA was eluted in 50 μl nuclease-free water and RNA concentration was determined spectrophotometrically (Infinite 200 PRO NanoQuant, Tecan, Männedorf/Switzerland). Reverse transcription into cDNA was performed with 500 ng RNA in a final volume of 10 μl (Quantitect Reverse Transcription Kit, Quiagen, Hilden/Germany). qRT-PCR was conducted on 384 well plates in a total volume of 12.5 μl comprising 6.25 μl SensiMix SYBR No-ROX (Bioline, London/UK), 250 nM forward and reverse primers, and 1 μl template cDNA (LightCycler 480 System, Roche Diagnostics, Rotkreuz/Switzerland). […]
# [3] = system: wildtype mice; assay: Indirect calorimetry, heat production after i.p. injection in wildtype mice; assay type: in vivo, Mus musculus; details: 0.5 mg/kg i.p., 27° C.
# Experimental: as §1
substance,measurement,setting,value
secretin,heat production and its AUC versus PBS,[1],no difference
same,UCP1 mRNA expression in white adipocytes versus PBS,[2],increased the expression of UCP1
same,AUC of heat production versus PBS,"[3]; 129/S6 wildtype mice, 45 minutes, basal subtracted, p=0.001 (FIG. 5B)",significant increase in the AUC
same,AUC of heat production versus PBS,"[3]; wildtype mice of 129/S1-UCP1 knockout strain, 60 minutes, p=0.002 (FIG. 6C)",higher AUC

# — patent US20200179488A1, “Secretin Receptor Agonists to Treat Diseases or Disorders of Energy Homeostasis” (Technische Universität München, priority 2016, published 2020)
